Measurements from the NIST ThermoML archive (doi:10.1021/je800110r).

Conditions: 333.15 K, Liquid, Vibrating tube method

CCCCCCCCCC [decane]
Conditions | mass density [kg/m3]
19251 kPa | 716.4
19274 kPa | 716.4
19314 kPa | 716.5
19349 kPa | 716.6
19381 kPa | 716.6
19417 kPa | 716.4
19450 kPa | 716.6
19479 kPa | 716.6
19511 kPa | 716.6
19540 kPa | 716.7
19568 kPa | 716.7
19592 kPa | 716.6
19616 kPa | 716.7
19651 kPa | 716.8
19679 kPa | 716.8
19711 kPa | 716.7
19731 kPa | 716.7
19756 kPa | 716.9
19796 kPa | 716.8
19819 kPa | 716.8
19856 kPa | 716.9
19885 kPa | 717
19910 kPa | 716.9
19934 kPa | 717
19963 kPa | 717
19996 kPa | 716.9
20029 kPa | 717.1
20054 kPa | 717.2
20083 kPa | 717
20116 kPa | 717
20150 kPa | 717.1
20188 kPa | 717.1
20228 kPa | 717.3
20254 kPa | 717.2
20284 kPa | 717.3
20318 kPa | 717.2
20356 kPa | 717.3
20390 kPa | 717.3
20425 kPa | 717.4
20464 kPa | 717.3
20494 kPa | 717.3
20525 kPa | 717.4
20552 kPa | 717.5
20579 kPa | 717.5
20606 kPa | 717.4
20628 kPa | 717.4
20654 kPa | 717.5
20695 kPa | 717.6
20730 kPa | 717.5
20769 kPa | 717.6
20801 kPa | 717.6
20841 kPa | 717.6
20873 kPa | 717.7
20900 kPa | 717.7
20931 kPa | 717.7
20959 kPa | 717.8
20996 kPa | 717.7
21022 kPa | 717.8
21055 kPa | 717.8
21176 kPa | 717.9
21204 kPa | 717.9
21251 kPa | 717.9
21280 kPa | 718
21313 kPa | 718.1
21352 kPa | 718.1
21376 kPa | 718.1
21409 kPa | 718.2
21433 kPa | 718.1
21462 kPa | 718.2
21500 kPa | 718.2
21529 kPa | 718.2
21573 kPa | 718.3
21612 kPa | 718.4
21655 kPa | 718.3
21690 kPa | 718.4
21725 kPa | 718.4
21755 kPa | 718.4
21861 kPa | 718.6
21901 kPa | 718.5
21931 kPa | 718.6
21967 kPa | 718.6
22007 kPa | 718.5
22038 kPa | 718.6
22074 kPa | 718.7
22115 kPa | 718.7
22162 kPa | 718.7
22193 kPa | 718.8
22224 kPa | 718.8
22261 kPa | 718.8
22293 kPa | 718.8
22345 kPa | 718.9
22381 kPa | 718.9
22419 kPa | 719
22471 kPa | 719
22498 kPa | 718.9
22530 kPa | 719
22561 kPa | 719
22611 kPa | 719
22649 kPa | 719.1
22677 kPa | 719.1
22726 kPa | 719.1
22771 kPa | 719.2
22816 kPa | 719.2
22849 kPa | 719.4
22899 kPa | 719.3
22927 kPa | 719.4
22959 kPa | 719.3
23000 kPa | 719.3
23038 kPa | 719.5
23068 kPa | 719.3
23096 kPa | 719.5
23134 kPa | 719.6
23172 kPa | 719.5
23219 kPa | 719.5
23252 kPa | 719.6
23281 kPa | 719.5
23314 kPa | 719.6
23339 kPa | 719.7
23382 kPa | 719.7
23416 kPa | 719.8
23452 kPa | 719.7
23491 kPa | 719.8
23539 kPa | 719.9
23579 kPa | 719.7
23623 kPa | 719.9
23657 kPa | 719.9
23697 kPa | 719.9
23726 kPa | 719.9
23766 kPa | 720
23797 kPa | 720
23831 kPa | 719.9
23868 kPa | 720.1
23898 kPa | 720.1
23943 kPa | 720.1
23979 kPa | 720
24014 kPa | 720.1
24049 kPa | 720.1
